Test system: P58^IPK and DER-1
Assay: Northern blot analysis of XBP-1s transcription targets
Type: cell-based, human
Details: 2 μM, Tm or hypoxia 24 hours
Protocol: Cells were cultured in 10 cm plates, harvested, and total RNA recovered with Trizol (Invitrogen, San Diego, Calif.). Total RNA (10 μg) was resolved on a 1% agarose-formaldehyde gel. ^32P-labeled probes were prepared using the Rediprime II random-prime labeling kit (GE-Amersham, Buckinghamshire, UK). The primers used to PCR amplify probes are as follows. P58^IPK: 5′[…] 3′ (SEQ ID NO: 4); 5′ […] 3′ (SEQ ID NO: 5). DER-1: 5′ […] 3′ (SEQ ID NO: 6); 5′[…] 3′ (SEQ ID NO: 7). Blots were incubated with probe overnight, washed three times in 2×SSC/0.2% SDS, dried, and exposed to a phosphorimager screen overnight. Images were analyzed using ImageQuant software (Molecular Dynamics).
A. XBP-luciferase reporter construct. Firefly luciferase was inserted downstream of the IRE1α splice site in human XBP-1 to enable the conditional translation of luciferase under ER stress in an IRE1α-dependent manner. […] After 24 hours, luciferase activity was analyzed in an automated plate reader. For each cell line, values are expressed as the percent inhibition of the median for Tm/Tg-treated wells, corrected for background. […] Values are expressed as the fold increases over uninduced levels. […] Cells were harvested, lysed, and analyzed by immunoblotting with antisera specific for HIF-1α (top), XBP-1s (middle) or actin (bottom). […] Total RNA was analyzed by Northern blotting using radiolabeled probes specific for P58^IPK or DER-1. […]

Cc1csc(NC(=O)CSc2nc3c(c(C(F)(F)F)c2C#N)CCC3)n1 [Compound 9389]
induction of P58^IPK and DER-1 expression: fully inhibited this response
